Experimental findings from paper PMC9031226, “Preclinical Therapeutic Assessment of a New Chemotherapeutics [Dichloro(4,4’-Bis(2,2,3,3-Tetrafluoropropoxy) Methyl)-2,2’-Bipryridine) Platinum] in an Orthotopic Patient-Derived Xenograft Model of Triple-Negative Breast Cancers” (Pharmaceutics, 2022) are described below.

One test deals with MDA-MB-231. The test can be described thus: MTT cell viability assay on MDA-MB-231. The class given is cell-based, human. The conditions noted are these: for reduction in cell viability: MDA-MB-231, 20 μM; for IC50: MDA-MB-231, MTT assay, 48 h. The method, then: (§1) Human cancer cell lines, including MDA-MB-231, MCF-7, COLO205 and SK-OV-3, used in this study were purchased from American Type Culture Collection (ATCC, Manassas, VA, USA). All cell cultures were maintained in a 5% CO2-containing incubator at 37 °C. Triple-negative breast cancer cell line MDA-MB-231 and estrogen receptor-positive breast cancer cells MCF-7 were cultured in Dulbecco’s Modified Eagle Medium/Nutrient Mixture F-12 medium (DMEM/F12, Thermo Fisher Scientific Inc., Waltham, MA, USA) supplemented with 1% HyClone Penicillin-Streptomycin 100X solution (Cytiva, Marlborough, MA, USA) and 10% (v/v) fetal bovine serum (Thermo Fisher Scientific Inc., Waltham, MA, USA). COLO205 colon cancer cells and SK-OV-3 ovarian cancer cells were cultured in Roswell Park Memorial Institute (RPMI) 1640 medium (Thermo Fisher Scientific Inc., Waltham, MA, USA) containing the same supplements as described above.
(§2) Cell viability was evaluated using MTT assay. […] A viable cell count was determined by adding MTT reagent (3-(4,5-Dimethyl-2-thiazolyl)-2,5-diphenyl-2H-tetrazolium bromide (MTT; SERVA, Heidelberg, Germany) at a concentration of 5 mg/mL in PBS followed by measurement of the absorbance at 570 nm for each well detected by μQuant™ universal microplate spectrophotometer (BioTek, Winowski, VT, USA). The assessment procedures were followed under the manufacturer’s instructions. The final results were represented as mean values in the same experimental group detected by a microplate reader.

The test system of another test is MCF-7. The experiment in a line: MTT cell viability assay on MCF-7. The class given is cell-based, human. The conditions noted are these: for reduction in cell viability (antiproliferative effect): MCF-7, 80 μM. The method, then: as §1, §2
The subject of test [1] is MDA-MB-231 cells. The test can be described thus: Apoptosis detection (annexin V/PI, flow cytometry). The class given is cell-based, human. The conditions noted are these: MDA-MB-231, 15 h. As for the experimental part: In total, 3 × 10^5 MDA-MB-231 cells were first plated and cultured in a 6-well plate for 24 h and then exposed to medium, TFBPC- or CDDP-containing medium, and incubated in the dark for another 15 h, followed by apoptotic assessment using FITC-annexin V (AV) and propidium iodide (PI) double staining cell solution (Thermo Fisher Scientific Inc., Waltham, MA, USA) for 30 min. To assess the AV-Phosphatidylserine (excitation/emission maxima of 490/525 nm) and PI-DNA (excitation/emission maxima of 535/617 nm) binding, fluorescence intensity was analyzed and recorded using flow cytometer. Scatters in a two-parameter dot plot were gated into four quadrants. Proportions in the lower right (LR) and upper right (UR) quadrants were represented as the early stage and late stage in apoptotic process.

Another test relates to STAT3-DN plasmid. The test can be described thus: Gel-based electrophoretic mobility shift assay. The conditions noted are these: 24 h, 37 °C. Format: binding. The method, then:
Plasmid DNA interacting with platinum-containing compounds was studied using agarose gel electrophoresis to separate DNA fragments dependent on sizes and structures. In total, […] of STAT3-DN plasmid (BIOTOOLS Co., New Taipei City, Taiwan) around 4.8 kb provided by Dr. Chien-Huang Lin was incubated with an equal volume of increasing concentrations of compounds (5~40 µM) at 37 °C for 24 h.

Test [2] has as its system MDA-MB-231 cells. The experiment in a line: Cell line-derived xenograft (CDX) model, tumor growth. The class given is in vivo. The conditions noted are these: NSG mice. As for the experimental part: The procedures for the establishment of breast cancer-bearing xenograft models were modified from a previous publication and approved by the Taipei Medical University (TMU) Institutional Animal Care and Use Committee (IACUC No. LAC-2020-0175). Overall, 4- to 6-week-old NOD.Cg-PrkdcscidIl2rgtm1Wjl/SzJ (NSG) female mice purchased from National Laboratory Animal Center (Taipei, Taiwan) were housed in specific pathogen-free rooms with ad libitum feeding and 12 h light–dark cycle. After a week of acclimatization, 2 × 10^6 MDA-MB-231 cells suspended in 1:1 ratio of phosphate-buffered saline plus Matrigel® Matrix (Cat. 356237; Corning Inc., New York, NY, USA) were subcutaneously injected on the right flank of each mouse. […] To monitor tumor growth in the models, tumor diameter was measured using an electronic caliper and values were applied on the equation: width^2 × length × 0.52 to estimate their tumor volume. All mice were sacrificed on day 28 after treatment. Plasma, tumors and major organs (heart, liver, kidney, spleen and lung) were collected for toxicity assessment and metastasis evaluation.

Test [3] deals with P53, Ki-67, cleaved caspase 3, PD-L1. The test can be described thus: Immunohistochemistry of CDX tumors. The class given is in vivo, mice. Particulars: 5 mg/kg. From the text:
Formalin-fixed and paraffin-embedded 4 μm sections of tumor and organs from cell-bearing xenograft models were stained in hematoxylin and eosin to provide an overall morphology of tissues. Tumor sections were dewaxed with UltraClear™ (J.T.Baker, Phillipsburg, NJ, USA), rehydrated in a descending series of alcohol and water and had antigens unmasked in pH 6 or pH 9 Epitope Retrieval Solution (Leica Biosystems Inc., Wetzlar, Germany) in a microwave pressure cooker. […] VisUCyte HRP Polymer Antibody against rabbit IgG (VC003-025; R&D Systems, Minneapolis, MN, USA) and mouse IgG (VC001-025; R&D Systems, Minneapolis, MN, USA) were targeted to primary antibodies. Liquid DAB+ system from Agilent Technologies (Santa Clara, CA, USA) was applied as a chromogen for visualizing. Slides were mounted after hematoxylin counterstaining. All images were scanned using Motic EasyScan Pro 6 pathology slide scanner (Motic China Group Co., Ltd., Hong Kong, China).

[4] abbreviates: 5 mg/kg i.p. weekly x4, day 28, PBS 1412.72 ± 120.85.

Bounds are passed on as bounds.

Regarding `N.N.[Cl][Pt][Cl]` [CDDP, Cis-diamineplatinum(II) dichloride], in the test on MDA-MB-231, the “reduction in cell viability” value was determined as 10% and the half-inhibitory concentration (IC50) was over 80 µM. The “reduction in cell viability (antiproliferative effect)” value in the test on MCF-7 came to 19%. The molecule also gave an IC50 in the test on MCF-7 (MCF-7, MTT assay, 48 h) of over 80 µM. In addition, in the test on MDA-MB-231 cells [1], the “induction of apoptosis (annexin V)” value is recorded as “failed to induce MDA-MB-231 cells to undergo apoptosis”. Moreover, the “breakage of plasmid DNA (nicked or linear forms)” value with STAT3-DN plasmid is “induced single or double breakages of plasmid DNA”. Moreover, in the test on MDA-MB-231 cells [2] (2.11 mg/kg i.p. weekly x4, day 28, PBS 1412.72 ± 120.85), the average tumor volume result is “around 821.66 ± 133.75 mm^3”. For the same molecule, the average tumor volume in the test with MDA-MB-231 cells [2] (setting [4]) is about 540.23 ± 133.20 mm^3. In test [3], the “expression of P53, Ki-67 and PD-L1 in tumors (IHC)” value is “lower intensity in P53, Ki-67 and PD-L1”; the “expression of cleaved caspase 3 in tumors (IHC)” value is “higher intensity of cleaved caspase 3”.
Consider `FC(F)C(F)(F)COCc1ccnc(-c2cc(COCC(F)(F)C(F)F)ccn2)c1.[Cl][Pt][Cl]` [TFBPC], for which, in the test with MDA-MB-231, the “reduction in cell viability” value worked out at 88% and the IC50 came to 3.86 µM. For the same molecule, the “reduction in cell viability (antiproliferative effect)” value with MCF-7 is on record as 28%. Also, in the test on MCF-7 (MCF-7, MTT assay, 48 h), the IC50 is over 80 µM and the “IC50 Values” was “resistant”. In the test with MDA-MB-231 cells [1], the “induction of apoptosis (annexin V)” value was “caused cells to undergo an apoptotic fate”. In addition, the “breakage of plasmid DNA (nicked or linear forms)” value in the test with STAT3-DN plasmid was “induced single or double breakages of plasmid DNA”. Further, in the test on MDA-MB-231 cells [2] (5 mg/kg i.p. weekly x4, day 28), the tumor weight is ~ 0.3 g. Also, the average tumor volume in the test on MDA-MB-231 cells [2] (setting [4]) was about 413.03 ± 87.50 mm^3. In addition, in test [3], the “expression of P53, Ki-67 and PD-L1 in tumors (IHC)” value was “lowest level in expressions of P53, Ki-67 and PD-L1”; the “expression of cleaved caspase 3 in tumors (IHC)” value was “highest expression of cleaved caspase 3”.
